What all share (type): cell-based
For assay [1], the system named is p-ERK. The assay is described as follows: Cell p-ERK assay (HTRF, Advance ERK phospho-T202/Y204 kit) in NCI-H441 cells. As to conditions: NCI-H441, human non-small cell lung cancer cell strain, KRAS G12V mutation, 3 h compound incubation. The method, boiled down:
(§1)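 Cells with endogenous KRAS mutations, AsPC-1 (G12D) and NCI-H441 (G12V), were plated overnight and then exposed to compound for 3 h at 37 °C (final 0.1% DMSO, 10% FBS medium). ERK T202/Y204 phosphorylation in lysates was read by HTRF, and IC50 was derived from four-parameter curves of inhibition relative to DMSO and blank controls.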
(In general: TR-FRET usually uses a lanthanide donor and a delayed reading to cut background.)

The test system of the next assay is NCI-H441 cells. The assay is described as follows: 3D cell proliferation assay (CellTiter Glo-3D) in NCI-H441 cells. As to conditions: NCI-H441, human lung cancer cell strain, KRAS G12V mutation, 3D culture, 2% FBS, 5 days, read-out: H441 AP IC50. The method, boiled down:
(§2)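 KRAS^G12V NCI-H441 and KRAS^G12D AsPC-1 cells (800 cells/well each) grown in RPMI-1640 with 2% FBS and treated the day after seeding with 3.16-fold compound dilutions (0.1% DMSO) for 5 days at 37 °C. Viability by CellTiter-Glo 3D luminescence; inhibition versus DMSO and cell-free controls, IC50 from four-parameter fit.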
(ATP-based viability assays read luminescence as a measure of living cells.)

Assay [2] has as its system p-ERK. The assay is described as follows: Cell p-ERK assay (HTRF, Advance ERK phospho-T202/Y204 kit) in AsPC-1 cells. As to conditions: AsPC-1, human pancreatic cancer cell strain, KRAS G12D mutation, 3 h compound incubation. The gist of the method:
as §1

The test system of another assay is AsPC-1 cells. The assay can be described thus: 3D cell proliferation assay (CellTiter Glo-3D) in AsPC-1 cells. As to conditions: AsPC-1, human pancreatic cancer cell strain, KRAS G12D mutation, 3D culture, 2% FBS, 5 days, read-out: AsPC-1 AP IC50. The gist of the method: as §2

Like-named read-outs stand apart in the source and are kept apart here.

As a reminder, the IC50 is the midpoint of a concentration-inhibition curve.

Regarding `CO[C@@H](C)c1ncc(C#CCN2CCS(=O)(=O)CC2)cc1-c1c2c(nn1C(C)C)/C=C/c1csc(n1)C[C@H](NC(=O)[C@H]1[C@H](C)[C@@H]1C)C(=O)N1CCC[C@H](N1)C(=O)OCC(C)(C)C2` (atropisomer, axis not shown) [Compound Z15A, (1r,2R,3S)-N-((4^2Z,8^3S,2E,6S)-1^5-(5-(3-(1,1-dioxidothiomorpholino)prop-1-yn-1-yl)-2-((S)-1-methoxyethyl)pyridin-3-yl)-1^1-isopropyl-12,12-dimethyl-7,9-dioxo-8^1,8^2,8^3,8^4,8^5 3^6-hexahydro-1^1H-10-oxa-4(4,2)-thiazola-8(1,3)-pyridazina-1(3,4)-pyrrolacyclotridecaphan-2-en-6-yl)-2,3-dimethylcyclopropane-1-carboxamide], the IC50 with p-ERK [1] (Homo sapiens, NCI-H441, 3 h) was 7.99 nM; with NCI-H441 cells (Homo sapiens, NCI-H441, 120 h) it was 7.63 nM; in the assay on p-ERK [2] (ASPC1) it was 30 nM; with AsPC-1 cells (ASPC1, 120 h), 22.7 nM.

For “(1r,2R,3S)-N-((4^2Z,8^3R,2E,6R)-1^1-ethyl-(Sa)-1^5-(2-((S)-1-methoxyethyl)-5-(4-methylpiperazin-1-yl)pyridin-3-yl)-12,12-dimethyl-7,9-dioxo-8^1,8^2,8^3,8^4,8^5,8^6-hexahydro-1^1H-10-oxa-4(4,2)-thiazola-8(1,3)-pyridazina-1(3,4)-pyrrolacyclotridecaphan-2-en-6-yl)-2,3-dimethylcyclopropane-1-carboxamide [Compound Z8-1]”, the IC50 in the assay on p-ERK [1] was 98.6 nM; in the assay with NCI-H441 cells, 62.7 nM; in the assay on p-ERK [2], 103 nM; in the assay with AsPC-1 cells it was 64.3 nM.

These data come from patent EP4772514A1, “MACROCYCLIC COMPOUNDS, PREPARATION METHOD THEREFOR, AND USE THEREOF” (Genfleet Therapeutics (Shanghai) Inc., priority 2023, dated 2025).
